21 compounds from US20150352108A1, “AMINO-PYRIMIDINE COMPOUNDS AS INHIBITORS OF TBK1 AND/OR IKK EPSILON” (Alzheimer's Institute of America, priority 2009, published 2015) can be followed below.

The structures appear in SMILES notation. pIC50: −log10 of the molar value. Where only a bound is given, the exact number is not on record here.

A word on the pIC50: it is the negative decadic logarithm of the IC50, by convention in mol/L.

Assay [1] deals with T1, IKKε (Homo sapiens, UniProt Q14164).
T1 construct: His-tag; made in house; host or cells: Sf9 insect cells
T1 sequence (Q14164 1-716): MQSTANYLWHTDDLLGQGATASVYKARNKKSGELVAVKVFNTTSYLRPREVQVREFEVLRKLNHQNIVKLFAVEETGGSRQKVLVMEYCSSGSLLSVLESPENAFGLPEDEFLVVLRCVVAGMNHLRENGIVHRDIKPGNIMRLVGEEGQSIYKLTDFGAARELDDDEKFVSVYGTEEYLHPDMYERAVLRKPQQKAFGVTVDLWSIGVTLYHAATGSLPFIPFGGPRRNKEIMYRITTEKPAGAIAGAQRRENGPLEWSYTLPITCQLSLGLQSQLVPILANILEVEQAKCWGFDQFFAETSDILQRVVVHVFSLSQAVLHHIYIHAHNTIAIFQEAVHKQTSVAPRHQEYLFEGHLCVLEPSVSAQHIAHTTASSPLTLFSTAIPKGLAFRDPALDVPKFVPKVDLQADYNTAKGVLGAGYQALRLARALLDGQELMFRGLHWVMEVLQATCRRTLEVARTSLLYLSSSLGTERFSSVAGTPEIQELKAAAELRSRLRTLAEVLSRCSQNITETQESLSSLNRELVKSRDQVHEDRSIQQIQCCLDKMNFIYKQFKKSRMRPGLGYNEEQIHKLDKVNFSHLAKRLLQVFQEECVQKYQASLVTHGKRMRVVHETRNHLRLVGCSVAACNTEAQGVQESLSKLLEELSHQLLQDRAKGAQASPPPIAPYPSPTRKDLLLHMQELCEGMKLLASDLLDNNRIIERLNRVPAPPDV
Nature of the assay: In-vitro IKKε kinase assay ([γ33]ATP filter-plate). In kind it is biochemical. The note with it: text bins; read-out: IC50 for inhibition of the kinase activity of IKKε. In outline:
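His-tagged Sf9-expressed kinases at 0.1 or 0.02 μg/ml (TBK1) and 0.1 or 0.015 μg/ml (IKKε) for normal and sensitized formats, with myelin basic protein or casein substrate. ATP was at 2×Km (60 μM TBK1, 32 μM IKKε) plus 0.3 μCi [γ33]ATP. Reactions ran 30-45 min, were captured on P-81 filters, and counts were normalized to DMSO.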

For assay [2], the system named is IKKε-mediated phosphorylation of IRF3. Put plainly: In-situ phosphorylation of IRF3 (pIRF3 Ser396 ELISA) in HEK293T cells cotransfected with IRF3 and IKKε. Type of assay: cell-based. Particulars: Homo sapiens, HEK-293T; HEK293T cells, 20 hours, text bins; read-out: IC50 for inhibition of the in-situ IKKε-mediated phosphorylation of IRF3. The procedure:
HEK293T cells were cotransfected in a 10-cm dish with IRF3 and IKKε expression plasmids using Lipofectamine 2000 (Invitrogen, Carlsbad, Calif.). The following day, cells were replated at 20,000 per well in 96-well plates and treated with test compounds (compounds according to Formula I) for 20 hours. Cell lysates were prepared and analyzed using an ELISA for phospho-Ser396 (anti-IRF3 capture antibody, Santa Cruz Biotechnology, Inc., Santa Cruz, Calif.; anti-p-Ser396 IRF3 detection antibody, Cell Signaling, Danvers, Mass.). pIRF3 levels in compound treated cells were normalized to DMSO treated cells (no compound). Cell viability was assayed in a parallel set of plates to monitor cytotoxic effects of the test compounds (CellTiter-Glo, Promega, Inc., Madison, Wis.). TBK1 activity was tested by Western blotting using a phospho-specific IRF7 antibody. Similar to above, HEK293T cells were transfected with IRF7 and TBK1 expression plasmids. Cells were seeded in 12-well plates at 150,000 per well and treated overnight with test compounds. Protein lysates were prepared and processed for Western blotting followed by detection using a phosphor-Ser477/Ser479 IRF7 antibody (BD Biosciences, San Jose, Calif.)
(In an ELISA, binding on a coated surface is turned into a signal by an enzyme label.)

As to `CC(=O)Nc1cccc(Nc2nccc(-c3ccc(OC4CCOCC4)c(C#N)c3)n2)c1` [compound 656, N-[3-({4-[3-Cyano-4-(tetrahydro-2H-pyran-4-yloxy)phenyl]pyrimidin-2-yl}amino)phenyl] acetamide], the negative logarithm of the IC50 (pIC50) was over 8.30 in assay [1] and over 7.00 in assay [2].

`N#Cc1cc(-c2ccnc(Nc3ccc(F)c(OC4CCNC4)c3)n2)ccc1OCC1CC1` (stereo not drawn) [compound 670, 2-(Cyclopropyl-methoxy)-5-(2-{[4-fluoro-3-(pyrrolidin-3-yloxy)phenyl]amino}pyrimidin-4-yl)benzonitrile]: the pIC50 in assay [1] is over 8.30; in assay [2], 6.30 to 6.60.

`N#Cc1cc(-c2nc(Nc3ccc(N4CCOCC4)cc3)ncc2F)ccc1OC1CCOCC1` [compound 592, 5-(5-Fluoro-2-{[4-(morpholin-4-yl)phenyl]amino}pyrimidin-4-yl)-2-(tetrahydro-2H-pyran-4-yloxy)benzonitrile]: the figures for the negative-log IC50 (pIC50) in assay [1] and in assay [2] were over 8.30 and over 7.00, respectively.

Turning to `CN(C)CCNc1cccc(Nc2nccc(-c3ccc(OC4CCOCC4)c(C#N)c3)n2)c1` [compound 540, 5-{2-[(3-{[2-(Dimethylamino)ethyl]amino}phenyl)amino]pyrimidin-4-yl}-2-(tetrahydro-2H-pyran-4-yloxy)benzonitrile], the pIC50 in assay [1] was over 8.30; in assay [2], over 7.00.

For `N#Cc1cc(-c2ccnc(Nc3ccc(Cn4cncn4)cc3)n2)ccc1OC1CCOCC1` [compound 624, 2-(Tetrahydro-2H-pyran-4-yloxy)-5-(2-{[4-(1H-1,2,4-triazol-1-ylmethyl)phenyl]amino}pyrimidin-4-yl)benzonitrile], the pIC50 in assay [1] was over 8.30; in assay [2], over 7.00.

Turning to `C[C@H](O)C(=O)N1CCC(Oc2ccc(-c3ccnc(Nc4ccc(F)c(OCCN)c4)n3)cc2C#N)CC1` [compound 655], the values for the pIC50 in assay [1] and in assay [2] were over 8.30 and 6.30 to 6.60, respectively.

As for `COC1CN(Cc2ccc(Nc3nccc(-c4ccc(O[C@@H]5CCN(C(=O)CO)C5)c(C#N)c4)n3)cc2)C1` [compound 658, 2-{[(3R)-1-(Hydroxyacetyl)pyrrolidin-3-yl]oxy}-5-[2-({4-[(3-methoxyazetidin-1-yl)methyl]phenyl}amino)pyrimidin-4-yl]benzonitrile], the negative logarithm of the IC50 (pIC50) in assay [1] was over 8.30; in assay [2], 6.30 to 6.60.

Turning to `COC1CN(C(C)c2ccc(Nc3nccc(-c4ccc(OC5CCOCC5)c(C#N)c4)n3)cc2)C1` (stereo not drawn) [compound 571, 5-[2-({4-[1-(3-Methoxyazetidin-1-yl)ethyl]phenyl}amino)pyrimidin-4-yl]-2-(tetrahydro-2H-pyran-4-yloxy)benzonitrile], the pIC50 was over 8.30 in assay [1] and over 7.00 in assay [2].

With `Cc1cn(Cc2cccc(Nc3nccc(-c4ccc(O[C@@H]5CCN(C(=O)CO)C5)c(C#N)c4)n3)c2)cn1` [compound 662, 2-{[(3R)-1-(Hydroxyacetyl)pyrrolidin-3-yl]oxy}-5-[2-({3-[(4-methyl-1H-imidazol-1-yl)methyl]phenyl}amino)pyrimidin-4-yl]benzonitrile], the pIC50 in assay [1] is over 8.30; in assay [2], over 7.00.

In the case of `CN(C)C1CCN(c2cccc(Nc3nccc(-c4ccc(OC5CCOCC5)c(C#N)c4)n3)c2)C1` (stereo not drawn) [compound 591, 5-[2-({3-[3-(Dimethylamino)pyrrolidin-1-yl]phenyl}amino)pyrimidin-4-yl]-2-(tetrahydro-2H-pyran-4-yloxy)benzonitrile], the values for the negative-log IC50 (pIC50) in assay [1] and in assay [2] were over 8.30 and 6.60 to 7.00, respectively.

Regarding `N#Cc1cc(-c2ccnc(Nc3cccc(-n4cccn4)c3)n2)ccc1OC1CCOCC1` [compound 578, 5-(2-{[3-(1H-Pyrazol-1-yl)phenyl]amino}pyrimidin-4-yl)-2-(tetrahydro-2H-pyran-4-yloxy)benzonitrile], the negative-log IC50 (pIC50) in assay [1] was over 8.30; in assay [2], 6.30 to 6.60.

Turning to `CC(C)(O)C(=O)Nc1cccc(Nc2nccc(-c3ccc(OC4CCOCC4)c(C#N)c3)n2)c1` [compound 563, N-[3-({4-[3-Cyano-4-(tetrahydro-2H-pyran-4-yloxy)phentyl]pyrimidin-2-yl}amino)phenyl]-2-hydroxy-2-methylpropanamide], the pIC50 is over 8.30 in assay [1] and 6.60 to 7.00 in assay [2].

For the compound `CN(C)Cc1cccc(Nc2nccc(-c3ccc(OC4CCOCC4)c(C#N)c3)n2)c1` [compound 548, 5-[2-({3-[(Dimethylamino)methyl]phenyl}amino)pyrimidin-4-yl]-2-(tetrahydro-2H-pyran-4-yloxy)benzonitrile], the pIC50 is over 8.30 in assay [1] and over 7.00 in assay [2].

In the case of `CCN(CC)CCOc1cc(Nc2nccc(-c3ccc(OCC4CC4)c(C#N)c3)n2)ccc1F` [compound 535, 2-(Cyclopropylmethoxy)-5-[2-({3-[2-(diethylamino)ethoxy]-4-fluorophenyl}amino)pyrimidin-4-yl]benzonitrile], the results for the negative logarithm of the IC50 (pIC50) in assay [1] and in assay [2] were over 8.30 and 6.30 to 6.60, respectively.

Consider `COc1cc(Nc2ncc(F)c(-c3ccc(O[C@@H]4CCN(C(=O)CO)C4)c(C#N)c3)n2)ccc1N1CCOCC1` [compound 552, 5-(5-Fluoro-2-{[3-methoxy-4-(morpholin-4-yl)phenyl]amino}pyrimidin-4-yl)-2-{[(3R)-1-(hydroxyacetyl)pyrrolidin-3-yl]oxy}benzonitrile], for which the pIC50 was over 8.30 in assay [1] and over 7.00 in assay [2].

As for `N#Cc1cc(-c2ccnc(Nc3ccc(-n4cncn4)cc3)n2)ccc1OC1CCOCC1` [compound 580, 2-(Tetrahydro-2H-pyran-4-yloxy)-5-(2-{[4-(1H-1,2,4-triazol-1-yl)phenyl]amino}pyrimidin-4-yl)benzonitrile], the results for the pIC50 in assay [1] and in assay [2] were over 8.30 and 6.30 to 6.60, respectively.

With `Cc1ccc(Nc2nccc(-c3ccc(O[C@@H]4CCN(C(=O)CO)C4)c(C#N)c3)n2)cc1C` [compound 643, 5-{2-[(3,4-Dimethylphenyl)amino]pyrimidin-4-yl}-2-{[(3R)-1-(hydroxyacetyl)pyrrolidin-3-yl]oxy}benzonitrile], the results for the pIC50 in assay [1] and in assay [2] were over 8.30 and 6.30 to 6.60, respectively.

As for `N#Cc1cc(-c2ccnc(Nc3cccc(N4CCC[C@H]4CO)c3)n2)ccc1O[C@@H]1CCN(C(=O)CO)C1` [compound 669, 2-{[(3R)-1-(Hydroxyacetyl)pyrrolidin-3-yl]oxy}-5-[2-({3-[(2S)-2-(hydrfoxymethyl)pyrrolidin-1-yl]phenyl}amino)pyrimidin-4-yl]benzonitrile], the pIC50 is over 8.30 in assay [1] and 6.60 to 7.00 in assay [2].

Regarding `N#Cc1cc(-c2ccnc(Nc3ccc(/C=C/CN4CCOCC4)cc3)n2)ccc1OC1CCOCC1` [compound 614, 5-[2-({4-[(1E)-3-(Morpholin-4-yl)prop-1-en-1-yl]phenyl}amino)pyrimidin-4-yl]-2-(tetrahydro-2H-pyran-4-yloxy)benzonitrile], the pIC50 in assay [1] is over 8.30; in assay [2], 6.30 to 6.60.

For the compound `N#Cc1cc(-c2ccnc(Nc3ccc(S(=O)(=O)Nc4ccccn4)cc3)n2)ccc1OC1CCOCC1` [compound 593, 4-({4-[3-Cyano-4-(tetrahydro-2H-pyran-4-yloxy)phenyl]pyrimidin-2-yl}amino)-N-(pyridin-2-yl) benzenesulfonamide], the negative-log IC50 (pIC50) in assay [1] is over 8.30; in assay [2], over 7.00.

Take `Cc1cn(Cc2cccc(Nc3nccc(-c4ccc(OC5CCOCC5)c(C#N)c4)n3)c2)cn1` [compound 653, 5-[2-({3-[(4-Methyl-1H-imidazol-1-yl)methyl]phenyl}amino)pyrimidin-4-yl]-2-(tetrahydro-2H-pyran-4-yloxy)benzonitrile]: the pIC50 is over 8.30 in assay [1] and over 7.00 in assay [2].
